Usually koff stands for a measure of how fast the partners let go of each other. The term Ki denotes a dissociation constant, usually derived from enzyme kinetics or from competition with a known ligand. Read a high Ki as weaker binding. The term kon denotes the second-order rate constant of association.

These results are taken from US9060997B2, “Antifolate compounds for the treatment of melanoma” (UNIVERSIDAD DE MURCIA, priority 2007, dated 2015).

SMILES strings stand for the structures.

The test has as its target T1, rHDHFR (Homo sapiens, UniProt P00374).
T1 construct: purchased Sigma
T1 sequence (P00374 1-187): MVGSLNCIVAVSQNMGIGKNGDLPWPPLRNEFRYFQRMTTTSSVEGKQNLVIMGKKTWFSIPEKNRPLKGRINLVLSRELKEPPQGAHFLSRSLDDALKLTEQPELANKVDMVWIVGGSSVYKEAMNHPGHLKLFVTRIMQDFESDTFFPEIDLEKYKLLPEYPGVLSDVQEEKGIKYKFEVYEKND
Description: rHDHFR binding: fluorescence titration and stopped-flow fluorescence. As to the method: The experiments were carried out in a buffer containing 2-(N-morpholino)ethanesulfonic acid (Mes, 0.025 M), sodium acetate (0.025 M), tris-(hydroxymethyl)aminomethane (Tris 0.05 M), and NaCl (0.1 M) at pH 7.4 and 25° C. in the presence of QM and rHDHFR (0.5 μM).
Stopped-flow fluorescence experiments were carried out at pH 7.4 and 25° C. using an enzyme concentration of 0.25 μM. The reaction of rHDHFR with inhibitors was observed under pseudo-first order conditions by fluorescence at 340 nm (excitation at 290 nm). The data points s are the means of at least 3 (normally 5) repeat observations±SD. […] Aliquots (20 μl) of the incubation mixture was then diluted 50-fold into a reaction mixture containing the buffer, NADPH (100 μM), and DHF (10 μM) to give a final enzyme concentration of 1.5 nM.
The activity of rHDHFR was determined at 25° C. by following the decrease in the absorbance of NADPH and DHF at 340 nm (ε=11800 M-1 cm−1) (Stone and Morrison, 1986). Progress curves were obtained under ordered conditions ([NADPH]>>[DHF]). rHDHFR inhibition constants were calculated as described by Navarro-Perán et al., 2005b. The dissociation constant for the binding of inhibitors to free rHDHFR was determined at 25° C. by fluorescence titration in an automatic-scanning Perkin-Elmer LS50B spectrofluorimeter. Fluorescence emission spectra were recorded when rHDHFR fluorescence was excited at 290 nm. Stopped-flow fluorescence experiments were carried out using an Applied Photophysics Ltd. Pi-Star 180 spectrometer with a stopped-flow unit at 25° C.

Take `COc1cc(C(=O)O[C@@H]2Cc3c(O)cc(O)cc3O[C@@H]2c2ccc(O)c(O)c2)cc(OC)c1OC` [TMECG, 3-O-(3,4,5-trimethoxybenzoyl)-(−)-epicatechin]: the koff (calculated from KI=koff/kon, read-out: koff) is 0.29 s⁻¹. Where the note is “dissociation constant, free rHDHFR, fluorescence titration, pH 7.4, 25° C.”, this compound yielded a Ki of 2100 nM. In addition, the kon (stopped-flow fluorescence, pH 7.4, 25° C., read-out: kon) is 140000 M⁻¹ s⁻¹.
